Data reported in ChEMBL document CHEMBL3286112, “Novel aza-analogous ergoline derived scaffolds as potent serotonin 5-HT₆ and dopamine D₂ receptor ligands” (J Med Chem, 2014).
Active and inactive are the calls of the source. No cut-off for these calls is given here.

target: T1, 5-hydroxytryptamine receptor 2C (Homo sapiens, UniProt P28335); assay: Displacement of [3H]5-HT from 5-HT2C receptor (unknown origin) expressed in hamster AV12 cells; format: cell-based; conditions: not given
T1 sequence (P28335 whole entry): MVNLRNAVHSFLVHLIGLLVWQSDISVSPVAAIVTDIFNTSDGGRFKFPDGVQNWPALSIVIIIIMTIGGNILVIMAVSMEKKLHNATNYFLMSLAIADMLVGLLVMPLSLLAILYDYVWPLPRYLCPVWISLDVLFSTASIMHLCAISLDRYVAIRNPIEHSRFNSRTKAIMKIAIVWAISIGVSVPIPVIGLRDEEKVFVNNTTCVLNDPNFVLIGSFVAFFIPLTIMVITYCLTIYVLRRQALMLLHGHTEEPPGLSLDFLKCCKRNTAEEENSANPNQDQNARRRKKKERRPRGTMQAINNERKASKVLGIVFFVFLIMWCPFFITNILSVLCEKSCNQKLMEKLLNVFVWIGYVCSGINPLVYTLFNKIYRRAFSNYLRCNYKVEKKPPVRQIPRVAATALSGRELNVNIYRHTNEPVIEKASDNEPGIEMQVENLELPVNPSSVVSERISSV

Structure (SMILES) | Ki
Fc1ccc2c(CCNCc3cccc(OCC(F)(F)C(F)F)c3)c[nH]c2c1 [IDALOPIRDINE] | 250 nM
COc1ccc(NS(=O)(=O)c2sc3ccc(Cl)cc3c2C)cc1N1CCNCC1 | 770 nM

target: T2, D(2) dopamine receptor (Homo sapiens, UniProt P14416); assay: Displacement of [3H]raclopride from human dopamine D2L receptor expressed in CHOK1a cell membrane after 180 mins by scintillation counting analysis; format: cell membranes; conditions: read-out: Ki
T2 sequence (P14416 whole entry): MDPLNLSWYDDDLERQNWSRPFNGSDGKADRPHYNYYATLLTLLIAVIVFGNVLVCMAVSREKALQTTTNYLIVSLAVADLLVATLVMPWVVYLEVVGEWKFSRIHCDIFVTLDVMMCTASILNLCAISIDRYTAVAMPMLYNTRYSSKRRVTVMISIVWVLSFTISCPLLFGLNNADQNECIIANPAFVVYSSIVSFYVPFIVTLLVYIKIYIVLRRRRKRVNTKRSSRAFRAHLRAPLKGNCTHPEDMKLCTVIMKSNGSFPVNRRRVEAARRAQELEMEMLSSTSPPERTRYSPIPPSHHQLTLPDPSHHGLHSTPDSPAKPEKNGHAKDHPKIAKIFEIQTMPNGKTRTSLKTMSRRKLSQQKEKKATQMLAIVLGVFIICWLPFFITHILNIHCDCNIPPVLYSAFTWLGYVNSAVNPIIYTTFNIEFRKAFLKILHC

Structure (SMILES) | Ki
c1ccc(CN2CCN3c4cccc5[nH]cc(c45)CC3C2)cc1 (configuration not stated) | 130 nM
c1ccc(-c2ccccc2CN2CCN3c4cccc5[nH]cc(c45)CC3C2)cc1 (configuration not stated) | 450 nM
CCCCN1CCN2c3cccc4[nH]cc(c34)CC2C1 (configuration not stated) | 110 nM
CC(C)CCN1CCN2c3cccc4[nH]cc(c34)CC2C1 (configuration not stated) | 24 nM
c1cc2c3c(c[nH]c3c1)CC1CNCCN21 (configuration not stated) | 2100 nM
CCN1CCN2c3cccc4[nH]cc(c34)CC2C1 (configuration not stated) | 140 nM
CN1CCN2c3cccc4[nH]cc(c34)CC2C1 (configuration not stated) | 660 nM
CCCN1CCN2c3cccc4[nH]cc(c34)CC2C1 (configuration not stated) | 570 nM

Second part, the compound after the results:

Ki | Structure (SMILES)
54 nM | c1cc2c3c(c[nH]c3c1)CC1CN(CC3CCCCC3)CCN21 (configuration not stated)
310 nM | CC(C)CN1CCN2c3cccc4[nH]cc(c34)CC2C1 (configuration not stated)
140 nM | c1ccc(-c2ccc(CN3CCN4c5cccc6[nH]cc(c56)CC4C3)cc2)cc1 (configuration not stated)
0.65 nM | c1ccc(-c2cccc(CN3CCN4c5cccc6[nH]cc(c56)CC4C3)c2)cc1 (configuration not stated)
98 nM | CCCCCN1CCN2c3cccc4[nH]cc(c34)CC2C1 (configuration not stated)

same assay, conditions: read-out: pKi (converted)

Ki | Structure (SMILES)
200 nM | c1ccc(-c2ccccc2CN2CCN3c4cccc5[nH]cc(c45)CC3C2)cc1 (configuration not stated)
0.229 nM | c1ccc(-c2cccc(CN3CCN4c5cccc6[nH]cc(c56)CC4C3)c2)cc1 (configuration not stated)

target: T2, D(2) dopamine receptor; assay: Intrinsic activity at human dopamine D2L receptor expressed in CHOK1a cell membrane assessed as [125I]-cAMP accumulation after 20 mins; format: functional, cell-based; conditions: not given

Structure (SMILES) | Intrinsic activity
c1ccc(CN2CCN3c4cccc5[nH]cc(c45)CC3C2)cc1 (configuration not stated) | 51
CC(C)CCN1CCN2c3cccc4[nH]cc(c34)CC2C1 (configuration not stated) | 96

The remaining lines, values ahead:

Intrinsic activity | Structure (SMILES)
95 | c1cc2c3c(c[nH]c3c1)CC1CN(CC3CCCCC3)CCN21 (configuration not stated)
35 | c1ccc(-c2cccc(CN3CCN4c5cccc6[nH]cc(c56)CC4C3)c2)cc1 (configuration not stated)

target: T1, 5-hydroxytryptamine receptor 2C; assay: Displacement of [3H]mesulergine from human 5-HT2C receptor expressed in human tsA201 cells after 1 hr by scintillation counting analysis; format: cell-based; conditions: not given

Structure (SMILES) | Ki
O=S(=O)(c1ccc(F)cc1)n1cc2c3c(cccc31)N1CCNCC1C2 (configuration not stated) | 1100 nM
Cc1cccc(S(=O)(=O)n2cc3c4c(cccc42)N2CCNCC2C3)c1 (configuration not stated) | 460 nM
O=S(=O)(c1ccccc1)n1cc2c3c(cccc31)N1CCNCC1C2 (configuration not stated) | 280 nM
O=S(=O)(c1ccccc1F)n1cc2c3c(cccc31)N1CCNCC1C2 (configuration not stated) | 350 nM
O=S(=O)(c1ccc(Cl)cc1)n1cc2c3c(cccc31)N1CCNCC1C2 (configuration not stated) | 1200 nM
COc1ccc(S(=O)(=O)n2cc3c4c(cccc42)N2CCNCC2C3)cc1 (configuration not stated) | 2900 nM
O=S(=O)(c1ccccc1Cl)n1cc2c3c(cccc31)N1CCNCC1C2 (configuration not stated) | 460 nM
Cc1ccc(S(=O)(=O)n2cc3c4c(cccc42)N2CCNCC2C3)cc1 (configuration not stated) | 780 nM

The remaining lines, values ahead:

Ki | Structure (SMILES)
870 nM | COc1ccccc1S(=O)(=O)n1cc2c3c(cccc31)N1CCNCC1C2 (configuration not stated)
470 nM | Cc1ccccc1S(=O)(=O)n1cc2c3c(cccc31)N1CCNCC1C2 (configuration not stated)
370 nM | COc1cccc(S(=O)(=O)n2cc3c4c(cccc42)N2CCNCC2C3)c1 (configuration not stated)
340 nM | O=S(=O)(c1cccc(Cl)c1)n1cc2c3c(cccc31)N1CCNCC1C2 (configuration not stated)
240 nM | O=S(=O)(c1cccc(F)c1)n1cc2c3c(cccc31)N1CCNCC1C2 (configuration not stated)

system: not listed separately; assay: Clearance in human; format: ADME, organism-based; conditions: in vivo

clearance | Structure (SMILES)
65 mL/min/kg | c1ccc(-c2cccc(CN3CCN4c5cccc6[nH]cc(c56)CC4C3)c2)cc1 (configuration not stated)
13.3 mL/min/kg | O=S(=O)(c1cccc(F)c1)n1cc2c3c(cccc31)N1CCNCC1C2 (configuration not stated)

target: T3, 5-hydroxytryptamine receptor 6 (Homo sapiens, UniProt P50406); assay: Displacement of [3H]LSD from human 5-HT6 receptor expressed in human HeLa cells after 1 hr by scintillation spectroscopic analysis; format: cell-based; conditions: read-out: Ki
T3 sequence (P50406 whole entry): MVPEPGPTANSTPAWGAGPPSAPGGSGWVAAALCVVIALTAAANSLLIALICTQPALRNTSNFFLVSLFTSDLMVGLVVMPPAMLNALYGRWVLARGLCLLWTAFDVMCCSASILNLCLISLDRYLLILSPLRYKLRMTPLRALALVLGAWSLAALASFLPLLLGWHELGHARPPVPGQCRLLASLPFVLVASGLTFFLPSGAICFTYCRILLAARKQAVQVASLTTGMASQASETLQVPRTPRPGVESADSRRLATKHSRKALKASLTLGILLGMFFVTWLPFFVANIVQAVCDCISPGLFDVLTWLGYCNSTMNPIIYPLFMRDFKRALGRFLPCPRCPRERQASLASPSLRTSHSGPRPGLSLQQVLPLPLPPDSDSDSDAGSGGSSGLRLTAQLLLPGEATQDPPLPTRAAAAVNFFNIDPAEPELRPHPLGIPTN

Structure (SMILES) | Ki
CN1C[C@@H](NS(=O)(=O)N(C)C)C[C@@H]2c3cccc4c3c(cn4C)C[C@H]21 [MESULERGINE] | 776 nM

same assay, conditions: read-out: pKi (converted)

Structure (SMILES) | Ki
CNc1cc(NS(=O)(=O)c2ccc(N)cc2)cc(NC)n1 | 12.3 nM

target: T3, 5-hydroxytryptamine receptor 6; assay: Antagonist activity at human 5-HT6 receptor expressed in CHO cells assessed as reduction in serotonin-induced cAMP accumulation after 30 mins by HTRF assay; format: functional, cell-based; conditions: not given

Activity | Structure (SMILES)
Active | O=S(=O)(c1ccccc1)c1cnc2c(N3CCNCC3)cccc2c1
Active | O=S(=O)(c1cccc(F)c1)n1cc2c3c(cccc31)N1CCNCC1C2 (configuration not stated)

system: tsA201; assay: Selectivity ratio of Ki for human 5-HT2C receptor expressed in human tsA201 cells to Ki for human 5-HT6 receptor expressed in hamster BHK cells; format: cell-based; conditions: not given

Structure (SMILES) | Ratio Ki
O=S(=O)(c1cccc(F)c1)n1cc2c3c(cccc31)N1CCNCC1C2 (configuration not stated) | 250

target: T3, 5-hydroxytryptamine receptor 6; assay: Displacement of [3H]LSD from human 5-HT6 receptor expressed in hamster BHK cells after 60 mins by scintillation counting analysis; format: cell-based; conditions: not given

Structure (SMILES) | Ki
O=S(=O)(c1ccc(F)cc1)n1cc2c3c(cccc31)N1CCNCC1C2 (configuration not stated) | 29 nM
Cc1cccc(S(=O)(=O)n2cc3c4c(cccc42)N2CCNCC2C3)c1 (configuration not stated) | 24 nM
O=S(=O)(c1ccccc1)n1cc2c3c(cccc31)N1CCNCC1C2 (configuration not stated) | 9 nM
O=S(=O)(c1ccc(Cl)cc1)n1cc2c3c(cccc31)N1CCNCC1C2 (configuration not stated) | 184 nM
COc1ccc(S(=O)(=O)n2cc3c4c(cccc42)N2CCNCC2C3)cc1 (configuration not stated) | 168 nM
Cc1ccc(S(=O)(=O)n2cc3c4c(cccc42)N2CCNCC2C3)cc1 (configuration not stated) | 96 nM

Results, then the compound that gave them:

Ki | Structure (SMILES)
26 nM | COc1ccccc1S(=O)(=O)n1cc2c3c(cccc31)N1CCNCC1C2 (configuration not stated)
21 nM | Cc1ccccc1S(=O)(=O)n1cc2c3c(cccc31)N1CCNCC1C2 (configuration not stated)
24 nM | COc1cccc(S(=O)(=O)n2cc3c4c(cccc42)N2CCNCC2C3)c1 (configuration not stated)
47 nM | O=S(=O)(c1cccc(Cl)c1)n1cc2c3c(cccc31)N1CCNCC1C2 (configuration not stated)
0.75 nM | O=S(=O)(c1cccc(F)c1)n1cc2c3c(cccc31)N1CCNCC1C2 (configuration not stated)
